Values quoted from earlier work, collected in US12697342B2, “Non-surgical prevention of boar taint and aggressive behavior” (priority 2022, dated 2026).

Test system: Sertoli cells
Conditions: young male pigs

Structure (SMILES) | duration of Sertoli cell proliferation and testis size
C[C@]12CC[C@@H]3c4ccc(O)cc4C[C@@H](CCCCCCCCC[S+]([O-])CCCC(F)(F)C(F)(F)F)[C@H]3[C@@H]1CC[C@@H]2O (some centres unmarked) [ICI 182,780] | highly significant increase
N#Cc1ccc(C(c2ccc(C#N)cc2)n2cncn2)cc1 [Letrozole] | highly significant increase
